Test results taken from patent US10947201B2, “Certain chemical entities, compositions, and methods” (NEUPHARMA, INC., priority 2015, dated 2021).

How the values were obtained:
[1] = system: H1975 cells; experiment: MTT cell growth inhibition assay, H1975; assay type: cell-based; conditions: Homo sapiens, NCI-H1975, H1975 cells (EGFR L858R/T790M), 72 h
Experimental: (§1) Inhibition of cell growth by compounds was measured using MTT assay (Mosmann, T., Journal of Immunological Methods, 1983, 65, 55-63). Tumor cell lines were purchased from ATCC (American Type Culture Collection, Manassas, Va.). All cell lines were maintained in RPMI 1640 (Hyclone) supplemented with 10% fetal bovine serum (FBS, Hyclone), glutamine (2 mM, Hyclone), and antibiotics (penicillin 100 U/mL and streptomycin 50 μg/mL) at 37° C. in a humidified atmosphere of 5% CO2 in air. Taxol (as a positive control, Sigma) and compounds were dissolved in DMSO (Sigma), and the final concentration of DMSO in the medium was 1%. Tumor cells were plated in 96-well plates at densities of about 4000 cells/well of a 96-well plate and allowed to adhere/grow for 24 h. They were then treated with various concentrations of drug for 72 h. 3-(4,5-Dimethylthiazol-2-yl)-2,5-diphenyltetrazolium bromide (MTT, Sigma) was used to determine the number of viable cells at the time of compound addition and the number of cells remaining after 72 h compound exposure. The number of cells remaining after 72 h was compared to the number of viable cells at the time of compound addition by measuring the absorbance at 570 nm, allowing for the calculation of growth inhibition.
(§2) All concentrations of compounds were tested in triplicate and controls were averaged over 4 wells. IC50 was calculated by plotting the concentration of compound vs the percentage of inhibition in treated wells using GraphPad Prism 5.
(§3) Tables 5 show IC50 values of several compounds of the invention in A549, A431, H1299, and H1975 human cancer cells. A549 cells have a mutation on KRAS, H3255 cells have L858R mutation, and H1975 cells have double EGFR mutations (L858R/T790M). The scale utilized in Table 5 is as follows: +++ less than 100 nM; ++ between 100 nM and 500 nM; and + greater than 500 nM.

[2] = target: T1, BTK (Homo sapiens, UniProt Q06187); experiment: Z'-LYTE kinase inhibition assay (Invitrogen), BTK; assay type: biochemical; conditions: for inhibition at 0.1 µM: compound at 100 nM, [ATP] = Km
T1 construct: purchased Invitrogen
Procedure, shortened: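 Z′-LYTE FRET read-out with Tyr 01 peptide 2 μM and 1.04-10.4 ng kinase in HEPES pH 7.5, MgCl2, EGTA, BRIJ-35; 1 h room temperature reaction, then 1 h development.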

[3] = system: A549 cells; experiment: MTT cell growth inhibition assay, A549; assay type: cell-based; conditions: Homo sapiens, A549 cells (KRAS mutation), 72 h
Experimental: as §1, §2, §3

[4] = system: A431 cells; experiment: MTT cell growth inhibition assay, A431; assay type: cell-based; conditions: Homo sapiens, A-431, 72 h
Experimental: as §1, §2, §3

[5] = target: T2, EGFR (ErbB1) T790M L858R (Homo sapiens, UniProt P00533, L858R/T790M); experiment: Z'-LYTE kinase inhibition assay (Invitrogen), EGFR L858R/T790M; assay type: biochemical; conditions: for inhibition at 0.0137 µM: compound at 13.7 nM, 10 μM of ATP; for inhibition at 0.1 µM: compound at 100 nM, [ATP] = Km
T2 construct: purchased Invitrogen
Procedure, shortened: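 Z′-LYTE FRET assay with EGFR L858R/T790M (0.38-4.22 ng) and 2 μM Tyr 04 peptide in 50 mM HEPES pH 7.0, 10 mM MgCl2, 1 mM EGTA, 1% DMSO; 1 h kinase reaction at room temperature, then 1 h development. 10-point 3-fold titrations; IC50 from concentration vs % inhibition.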

[6] = system: H3255 cells; experiment: MTT cell growth inhibition assay, H3255; assay type: cell-based; conditions: Homo sapiens, NCI-H3255, H3255 cells (L858R mutation), 72 h
Experimental: as §1, §2, §3

[7] = target: T3, EGFR (ErbB1) (Homo sapiens, UniProt P00533); experiment: Z'-LYTE kinase inhibition assay (Invitrogen), EGFR; assay type: biochemical; conditions: for inhibition at 0.1 µM: compound at 100 nM, [ATP] = Km
T3 construct: purchased Invitrogen
Procedure, shortened: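 Z'-LYTE FRET assay: 1.1-5.25 ng EGFR with 2 μM Tyr 04 peptide in 50 mM HEPES pH 7.5, 10 mM MgCl2, 2 mM MnCl2, 1 mM EGTA, 1 mM DTT, 1% DMSO; 60 min kinase reaction then 60 min development at room temperature. IC50 from 10-point 3-fold titrations, percent inhibition vs concentration.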

[8] = compound at 41 nM, 10 μM of ATP

T3 sequence (P00533 25-1210): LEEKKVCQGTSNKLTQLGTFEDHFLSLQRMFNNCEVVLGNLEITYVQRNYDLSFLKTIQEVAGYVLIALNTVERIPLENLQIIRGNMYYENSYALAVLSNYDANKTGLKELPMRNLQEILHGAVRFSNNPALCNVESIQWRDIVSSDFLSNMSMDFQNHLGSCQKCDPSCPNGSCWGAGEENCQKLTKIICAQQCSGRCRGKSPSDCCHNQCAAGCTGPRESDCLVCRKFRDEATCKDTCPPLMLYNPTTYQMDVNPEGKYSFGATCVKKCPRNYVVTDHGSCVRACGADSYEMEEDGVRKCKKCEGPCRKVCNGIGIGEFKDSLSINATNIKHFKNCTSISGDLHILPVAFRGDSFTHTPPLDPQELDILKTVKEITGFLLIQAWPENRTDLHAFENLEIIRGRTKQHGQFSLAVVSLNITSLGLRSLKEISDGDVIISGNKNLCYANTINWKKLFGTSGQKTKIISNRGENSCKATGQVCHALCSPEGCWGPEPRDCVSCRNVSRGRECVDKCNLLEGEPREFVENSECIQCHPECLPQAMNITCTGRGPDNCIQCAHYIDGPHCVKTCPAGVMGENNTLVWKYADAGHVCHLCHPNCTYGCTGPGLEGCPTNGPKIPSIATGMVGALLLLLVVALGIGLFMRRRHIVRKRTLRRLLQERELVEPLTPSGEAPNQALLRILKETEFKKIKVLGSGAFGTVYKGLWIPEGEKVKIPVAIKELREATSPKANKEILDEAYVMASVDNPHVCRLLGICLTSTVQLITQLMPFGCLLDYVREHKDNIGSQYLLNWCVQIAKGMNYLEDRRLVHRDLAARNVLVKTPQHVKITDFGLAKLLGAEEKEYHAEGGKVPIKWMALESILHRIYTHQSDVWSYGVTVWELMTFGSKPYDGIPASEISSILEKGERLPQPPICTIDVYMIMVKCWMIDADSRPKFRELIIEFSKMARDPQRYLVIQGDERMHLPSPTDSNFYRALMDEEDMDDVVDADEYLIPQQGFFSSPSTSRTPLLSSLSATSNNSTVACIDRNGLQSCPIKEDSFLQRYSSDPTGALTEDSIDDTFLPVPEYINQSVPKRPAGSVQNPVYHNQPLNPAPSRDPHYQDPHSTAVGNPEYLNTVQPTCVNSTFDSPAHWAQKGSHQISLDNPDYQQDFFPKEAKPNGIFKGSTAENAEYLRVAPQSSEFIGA
T1 sequence (Q06187 whole entry): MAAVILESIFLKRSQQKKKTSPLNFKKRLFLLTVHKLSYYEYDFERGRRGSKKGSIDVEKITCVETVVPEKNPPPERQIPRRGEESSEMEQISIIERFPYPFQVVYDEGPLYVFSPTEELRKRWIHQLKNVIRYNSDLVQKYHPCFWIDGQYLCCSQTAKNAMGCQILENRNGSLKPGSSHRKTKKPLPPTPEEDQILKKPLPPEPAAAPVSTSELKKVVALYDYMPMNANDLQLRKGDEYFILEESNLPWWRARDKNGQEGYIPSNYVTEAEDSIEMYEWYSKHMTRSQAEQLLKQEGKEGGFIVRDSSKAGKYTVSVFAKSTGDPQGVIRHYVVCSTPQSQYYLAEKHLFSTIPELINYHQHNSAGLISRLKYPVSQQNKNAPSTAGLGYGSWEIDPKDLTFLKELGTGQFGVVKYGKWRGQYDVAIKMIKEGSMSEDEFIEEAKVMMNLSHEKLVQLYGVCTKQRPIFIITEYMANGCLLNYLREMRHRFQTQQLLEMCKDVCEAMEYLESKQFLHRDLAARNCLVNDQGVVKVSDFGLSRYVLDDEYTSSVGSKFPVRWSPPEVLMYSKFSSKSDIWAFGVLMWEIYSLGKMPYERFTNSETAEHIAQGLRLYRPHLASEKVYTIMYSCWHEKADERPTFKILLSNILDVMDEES
T2 sequence (P00533 25-1210 T790M/L858R): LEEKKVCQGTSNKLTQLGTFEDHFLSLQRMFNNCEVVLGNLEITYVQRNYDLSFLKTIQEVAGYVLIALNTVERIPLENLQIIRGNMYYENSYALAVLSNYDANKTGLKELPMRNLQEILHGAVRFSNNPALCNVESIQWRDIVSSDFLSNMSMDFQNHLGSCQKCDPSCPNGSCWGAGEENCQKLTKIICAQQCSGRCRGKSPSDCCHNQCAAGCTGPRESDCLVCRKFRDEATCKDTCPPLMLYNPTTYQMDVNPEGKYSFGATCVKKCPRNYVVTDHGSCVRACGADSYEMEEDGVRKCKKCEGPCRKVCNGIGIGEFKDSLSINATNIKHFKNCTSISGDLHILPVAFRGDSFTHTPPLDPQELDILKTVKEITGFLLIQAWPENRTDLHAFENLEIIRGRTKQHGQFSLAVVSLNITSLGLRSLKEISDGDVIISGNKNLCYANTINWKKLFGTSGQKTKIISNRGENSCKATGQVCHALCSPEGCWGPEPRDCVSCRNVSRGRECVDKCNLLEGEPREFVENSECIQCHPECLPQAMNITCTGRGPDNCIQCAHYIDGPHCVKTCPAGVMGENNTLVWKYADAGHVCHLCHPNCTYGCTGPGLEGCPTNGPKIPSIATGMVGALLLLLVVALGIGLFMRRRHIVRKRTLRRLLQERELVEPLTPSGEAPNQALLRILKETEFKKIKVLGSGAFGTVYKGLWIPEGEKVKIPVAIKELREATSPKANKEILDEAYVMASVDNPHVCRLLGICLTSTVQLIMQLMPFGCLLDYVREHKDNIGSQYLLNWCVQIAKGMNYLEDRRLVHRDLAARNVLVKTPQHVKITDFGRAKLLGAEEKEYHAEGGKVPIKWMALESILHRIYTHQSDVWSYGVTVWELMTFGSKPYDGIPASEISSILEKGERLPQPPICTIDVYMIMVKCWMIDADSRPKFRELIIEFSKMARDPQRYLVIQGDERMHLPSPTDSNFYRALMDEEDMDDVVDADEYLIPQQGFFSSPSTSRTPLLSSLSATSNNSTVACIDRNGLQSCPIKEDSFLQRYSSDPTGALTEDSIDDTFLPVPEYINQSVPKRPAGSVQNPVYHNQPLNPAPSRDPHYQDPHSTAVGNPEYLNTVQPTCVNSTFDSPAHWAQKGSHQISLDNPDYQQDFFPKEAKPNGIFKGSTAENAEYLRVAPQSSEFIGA

| Compound | IC50 [1] [µM] | inhibition at 0.1 µM [2] [%] | IC50 [3] [µM] | IC50 [4] [µM] | inhibition at 0.0137 µM [5] [%] | inhibition at 0.1 µM [5] [%] | IC50 [6] [µM] | IC50 [7] [µM] | inhibition at 0.1 µM [7] [%] | IC50 [5] [µM] | IC50 [2] [µM] | inhibition at 0.041 µM [2, 8] [%] | inhibition at 0.041 µM [7, 8] [%] |
| --- | --- | --- | --- | --- | --- | --- | --- | --- | --- | --- | --- | --- | --- |
| C=CC(=O)Nc1cc(Nc2ncc3cccc(-c4cccc(F)c4)c3n2)c(OC)cc1N1CCC(N(C)C)C1 (stereo not shown) [Example C023, N-(2-(3-(dimethylamino)pyrrolidin-1-yl)-5-((8-(3-fluorophenyl)quinazolin-2-yl)amino)-4-methoxyphenyl)acrylamide] | < 0.1 | > 50 | > 0.5 | < 0.1 | – | – | – | – | – | – | – | – | – |
| C=CC(=O)Nc1cc(Nc2ncc3cccc(OC)c3n2)ccc1N(C)CCN(C)C [Example C003, N-(2-((2-(dimethylamino)ethyl)(methyl)amino)-5-((8-methoxyquinazolin-2-yl)amino)phenyl)acrylamide] | < 0.1 | < 50 | > 0.5 | 0.1 to 0.5 | < 50 | < 50 | – | – | – | – | – | – | – |
| C=CC(=O)Nc1cc(Nc2ncc3cccc(-c4cccc(Cl)c4)c3n2)ccc1N(C)CCN(C)C [Example C005, N-(5-((8-(3-chlorophenyl)quinazolin-2-yl)amino)-2-((2-(dimethylamino)ethyl)(methyl)amino)phenyl) acrylamide] | < 0.1 | > 50 | 0.1 to 0.5 | < 0.1 | – | > 50 | < 0.1 | > 0.1 | > 50 | < 0.1 | – | – | – |
| C=CC(=O)Nc1cc(Nc2ncc3cccc(-c4cccc(F)c4)c3n2)ccc1N1CC(N(C)C)C1 [Example C025, N-(2-(3-(dimethylamino)azetidin-1-yl)-5-((8-(3-fluorophenyl)quinazolin-2-yl)amino)phenyl)acrylamide] | < 0.1 | > 50 | 0.1 to 0.5 | < 0.1 | – | – | – | – | – | – | – | – | – |
| C=CC(=O)Nc1cc(Nc2ncc3cccc(-c4cccc(F)c4)c3n2)ccc1N(C)CCN(C)C [Example C006, N-(2-((2-(dimethylamino)ethyl)(methyl)amino)-5-((8-(3-fluorophenyl)quinazolin-2-yl)amino)phenyl)acrylamide] | < 0.1 | > 50 | < 0.1 | < 0.1 | – | > 50 | < 0.1 | < 0.1 | > 50 | < 0.1 | – | – | – |
| C=CC(=O)Nc1cc(Nc2ncc3cccc(-c4cccc(F)c4)c3n2)ccc1N1CCC(N(C)C)C1 (stereo not shown) [Example C024, N-(2-(3-(dimethylamino)pyrrolidin-1-yl)-5-((8-(3-fluorophenyl)quinazolin-2-yl)amino)phenyl)acrylamide] | < 0.1 | > 50 | 0.1 to 0.5 | < 0.1 | – | – | – | – | – | – | – | – | – |
| C=CC(=O)Nc1cc(Nc2ncc3cccc(Cl)c3n2)ccc1N(C)CCN(C)C [Example C002, N-(5-((8-chloroquinazolin-2-yl)amino)-2-((2-(dimethylamino)ethyl)(methyl)amino)phenyl) acrylamide] | < 0.1 | – | > 0.5 | 0.1 to 0.5 | – | – | – | > 0.1 | – | > 0.1 | > 0.1 | – | – |
| C=CC(=O)Nc1cc(Nc2ncc3cccc(-c4ccccc4Cl)c3n2)ccc1N(C)CCN(C)C [Example C008, N-(5-((8-(2-chlorophenyl)quinazolin-2-yl)amino)-2-((2-(dimethylamino)ethyl)(methyl)amino)phenyl) acrylamide] | 0.1 to 0.5 | > 50 | 0.1 to 0.5 | – | > 50 | < 50 | – | – | < 50 | – | – | > 50 | < 50 |
| C=CC(=O)Nc1cc(Nc2ncc3cccc(-c4ccccc4)c3n2)ccc1N(C)CCN(C)C [Example C004, N-(2-((2-(dimethylamino)ethyl)(methyl)amino)-5-((8-phenylquinazolin-2-yl)amino)phenyl)acrylamide] | < 0.1 | > 50 | < 0.1 | < 0.1 | – | > 50 | < 0.1 | > 0.1 | > 50 | < 0.1 | < 0.1 | – | – |
| C=CC(=O)Nc1cc(Nc2ncc3cccc(-c4cccc(Cl)c4)c3n2)c(OC)cc1OC1CCN(C)C1 (stereo not shown) [Example C020, N-(5-((8-(3-chlorophenyl)quinazolin-2-yl)amino)-4-methoxy-2-((1-methylpyrrolidin-3-yl)oxy)phenyl)acrylamide] | < 0.1 | > 50 | 0.1 to 0.5 | – | – | > 50 | – | – | > 50 | – | – | – | – |
| C=CC(=O)Nc1cc(Nc2ncc3cccc(-c4cccc(F)c4)c3n2)c(OC)cc1OC1CCN(C)C1 (stereo not shown) [Example C019, N-(5-((8-(3-fluorophenyl)quinazolin-2-yl)amino)-4-methoxy-2-((1-methylpyrrolidin-3-yl)oxy)phenyl)acrylamide] | < 0.1 | > 50 | 0.1 to 0.5 | – | – | > 50 | – | – | > 50 | – | – | – | – |
| C=CC(=O)Nc1cc(Nc2ncc3cccc(-c4cncc(F)c4)c3n2)ccc1N(C)CCN(C)C [Example C022, N-(2-((2-(dimethylamino)ethyl)(methyl)amino)-5-((8-(5-fluoropyridin-3-yl)quinazolin-2-yl)amino)phenyl)acrylamide] | < 0.1 | > 50 | 0.1 to 0.5 | < 0.1 | – | > 50 | – | – | < 50 | – | – | – | – |
